# What was measured:
# PANC-1 cells = assay: In vitro cytotoxicity assay (MTT), 96 h, RRM2 over-expressing cells; format: cell-based, human; settings: for IC50: MTT, 96 h incubation, RRM2 over-expressing
# From the text: (§1) Human leukemia cell line CCRF-CEM (CCL-119), human pancreatic cancer cell lines PANC-1 (CRL-1469), MIA PaCa-2 (CRL-1420), and BxPC-3 (CRL-1687), human breast adenocarcinoma cell line MCF-7 (HTB-22), and mouse lung cancer cell line TC-1 (CRL-2785) were from the American Type Culture Collection (Rockville, Md.). CCRF-CEM-AraC-8C cells (hENT1 deficient) and CCRF-CEM/dCK^−/− cells (dCK deficient) were kindly provided by Dr. Buddy Ullmann (Oregon Health & Science University, Portland, Oreg.) and Dr. Margaret Black (Washington State University, Pullman, Wash.), respectively. L1210 wt and L1210 10K were kindly supplied by Dr. Lars Petter Jordheim (Université Claude Bernard Lyon I, Lyon, France). TC-1-GR cells were previously developed in our lab. CCRF-CEM, CCRF-CEM-AraC-8C, CCRF-CEM/dCK^−/−, L1210 wt, L1210 10K, TC-1, and TC-1-GR cells were cultured in RPMI 1640 medium. MCF-7 and PANC-1 cells were cultured in Dulbecco's modified Eagle medium (DMEM), MIA PaCa-2 cells were cultured in DMEM medium with 2.5% horse serum. All media were supplemented with 10% fetal bovine serum (FBS), 100 U/mL of penicillin, and 100 μg/mL of streptomycin (all from Invitrogen, Carlsbad, Calif.).
# (§2) Cells (5,000/well) were seeded in 96-well plates. After overnight incubation, they were treated with various concentrations of gemcitabine HCl, gemcitabine derivatives, or gemcitabine derivatives in nanoparticles at 37° C., 5% CO2. TC-1 and TC-1-GR cells were incubated for 48 h. CCRF-CEM, CCRF-CEM-AraC-8C, CCRF-CEM/dCK^−/−, L1210 wt, L1210 10K, and MCF-7 cells were incubated for 72 h, and MIA PaCa-2 and PANC-1 for 96 h. Gemcitabine HCl was dissolved in phosphate-buffered saline (PBS), and gemcitabine derivatives were dissolved in dimethyl sulfoxide (DMSO). […] The number of viable cells after the incubation was determined using an MTT assay. Briefly, 3-(4,5-dimethylthiazol-2-yl)-2,5-diphenyltetrazolium bromide (20 μl, 5 mg/mL) was added in each well and incubated for 3 h. Formazan crystals were solubilized with acidified isopropanol (150 μl) (for CCRF-CEM, CCRF-CEM-AraC-8C, CCRF-CEM/dCK^−/−, L1210 wt, and L1210 10K cells) or DMSO (150 μl) (for TC-1, TC-1-GR, MCF-7, PANC-1, and MIA PaCa-2). Absorbance was measured using a BioTek Synergy™ HT Multi-Mode Microplate Reader (BioTek Instruments, Winooski, Vt.) at 570 nm and 630 nm. The fraction of affected (dead) cells (Fa) and the fraction of unaffected (live) cells (Fu) at every dose were calculated, and the Log(Fa/Fu) values were plotted against the Log(concentration of gemcitabine). IC50 was the dose at Log(Fa/Fu)=0, See e.g., Chou, T. C. & Talalay, P., 1984, Adv. Enzyme Regul. 22:27-55. The experiment was repeated at least three times.
# MIA PaCa-2 cells = assay: In vitro cytotoxicity assay (MTT), 96 h; format: cell-based, human; settings: 96 h incubation
# From the text: as §1, §2
# TC-1 cells = assay: In vitro cytotoxicity assay (MTT), 48 h; format: cell-based; settings: 48 h incubation
# From the text: as §1, §2
# TC-1-GR cells = assay: cells; format: cell-based; settings: for IC50: MTT, 48 h incubation, RRM1 over-expressing
# From the text: as §1, §2
# CCRF-CEM-AraC-8C cells = assay: In vitro cytotoxicity assay (MTT), 72 h, hENT1 deficient cells; format: cell-based, human; settings: for IC50: MTT, 72 h incubation, hENT1 deficient
# From the text: as §1, §2
# CCRF-CEM cells = assay: In vitro cytotoxicity assay (MTT), 72 h; format: cell-based, human; settings: 72 h incubation
# From the text: as §1, §2
# [1] = Solubility observations (DMSO, water); format: physicochemical; settings: for the in vitro cytotoxicity assay
# CCRF-CEM/dCK−/− cells = assay: In vitro cytotoxicity assay (MTT), 72 h, dCK deficient cells; format: cell-based, human; settings: MTT, 72 h incubation; dCK deficient
# From the text: as §1
# Cells (5,000/well) were seeded in 96-well plates. After overnight incubation, they were treated with various concentrations of gemcitabine HCl, gemcitabine derivatives, or gemcitabine derivatives in nanoparticles at 37° C., 5% CO2. TC-1 and TC-1-GR cells were incubated for 48 h. CCRF-CEM, CCRF-CEM-AraC-8C, CCRF-CEM/dCK^−/−, L1210 wt, L1210 10K, and MCF-7 cells were incubated for 72 h, and MIA PaCa-2 and PANC-1 for 96 h. […] The number of viable cells after the incubation was determined using an MTT assay. […] Absorbance was measured using a BioTek Synergy™ HT Multi-Mode Microplate Reader (BioTek Instruments, Winooski, Vt.) at 570 nm and 630 nm. The fraction of affected (dead) cells (Fa) and the fraction of unaffected (live) cells (Fu) at every dose were calculated, and the Log(Fa/Fu) values were plotted against the Log(concentration of gemcitabine). […]
# B16-F10 melanoma tumor = assay: Antitumor activity of GemC18/PEG-C18 micelles in mice with B16-F10 tumors (Example 20); format: in vivo, mouse; settings: C57BL/6 mice, tail vein injection, 0.283 mg GemHCl or molar equivalent GemC18; 2 doses (micelles 3 doses), 3 days apart
# Protocol: The in vivo antitumor activity of GemC18/PEG-C18 micelles was evaluated in C57BL/6 mice with subcutaneously inoculated B16-F10 cells (5.0×10^5/mouse) in the right flank. Treatments were given 6 days after tumor cell inoculation by tail vein injection with normal saline, Gemcitabine HCl (GemHCl) solution, GemC18 solution, blank PEG-C18 micelles, or GemC18/PEG-C18 micelles. The dose was 0.283 mg of GemHCl or molar equivalent amount of GemC18. All groups received a second dose three days after the first dose, while the GemC18/PEG-C18 micelle group also received a third dose 3 days after the second dose. Tumor sizes were measured with calipers in two perpendicular diameters every day and reported as tumor volume (V=½ [a×b^2], a=longer diameter, b=shorter diameter).
# [2] = IC50 of gemcitabine HCl divided by that of the derivatives or derivatives in nanoparticles
Ratio of IC50 values in TC-1-GR cells (TC-1-GR cells; [2]),Structure (SMILES),IC50 (PANC-1 cells) [µM],IC50 (MIA PaCa-2 cells) [µM],IC50 (TC-1 cells) [µM],IC50 (TC-1-GR cells) [µM],IC50 (CCRF-CEM-AraC-8C cells) [µM],IC50 (CCRF-CEM cells) [µM],solubility in DMSO [1],Ratio of IC50 in PANC-1 to that in MIA PaCa-2 (PANC-1 cells),IC50 (CCRF-CEM/dCK−/− cells) [µM],B16-F10 tumor growth (tumor volume) (B16-F10 melanoma tumor),Ratio of IC50 in CCRF-CEM-AraC-8C to that in CCRF-CEM (CCRF-CEM-AraC-8C cells),Ratio of IC50 values in CEM-AraC-8C cells (CCRF-CEM-AraC-8C cells; [2])
–,"CCCCCCCCCCCCCCCCCC(=O)OCC(Cl)COP(=O)(O)OC[C@H]1O[C@@H](n2ccc(N)nc2=O)C(F)(F)[C@@H]1O (mixture of isomers) [Compound 12, 2′-2′-difluoro-2′-deoxycytidine 5′(3-stearoyloxy-2-rac-chloropropyl)phosphate]",58.7 ± 14.2,0.245 ± 0.038,0.43 ± 0.0524,76.3 ± 10.5,1.77 ± 0.533,0.0498 ± 0.0059,–,–,–,–,–,–
–,"CCCCCCCCCCCCCCCCCC(=O)Nc1ccn([C@@H]2O[C@H](COP(=O)(O)O)C(O)C2(F)F)c(=O)n1 (stereo in doubt) [Compound 13, 4-N-Octadecanoyl-2′-2′-difluoro-2′-deoxycytidine 5′-sodiumphosphate]",–,–,–,–,–,–,not sufficiently solubilized in DMSO,–,–,–,–,–
–,"CCCCCCCCCCCCCCCCCCOP(=O)(O)OC[C@H]1O[C@@H](n2ccc(NC(C)=O)nc2=O)C(F)(F)[C@@H]1O [Compound 9, 4-N-acetyl-2′-2′-difluoro-2′-deoxycytidine-5′-octadecylphosphate]",38.5 ± 5.7,0.205 ± 0.0395,0.211 ± 0.085,9.3 ± 2.5,0.575 ± 0.0971,0.0581 ± 0.0185,–,–,–,–,–,–
5,"CCCCCCCCCCCCCCCCCC(=O)Nc1ccn([C@@H]2OC(CO)C(O)C2(F)F)c(=O)n1 (stereo partly shown) [GemC18, 4-N-stearoyl gemcitabine]",6 ± 1.1,0.133 ± 0.0604,0.132 ± 0.0172,7.7 ± 2.4,0.369 ± 0.235,0.0194 ± 0.0133,–,45,47.3 ± 8.7,not significant different from that in mice that received normal saline,19,2.7
